# Experimental data reported in patent publication US20140024527A1, “HERBICIDAL PYRAZINONES” (E I DU DE NEMOURS AND COMPANY, priority 2011, published 2014).
# How the values were obtained:
# Type in all cases: in vivo
# [1] = test system: giant foxtail (Setaria faberii); experiment: Test A preemergence; conditions: 0 to 100 scale, 0 no effect, 100 complete control, approx. 10 days
# Description: (§1) Seeds of barnyardgrass (Echinochloa crus-galli), large crabgrass (Digitaria sanguinalis), giant foxtail (Setaria faberii), morningglory (Ipomoea spp.), pigweed (Amaranthus retroflexus), velvetleaf (Abutilon theophrasti), wheat (Triticum aestivum) and corn (Zea mays) were planted into a blend of loam soil and sand and treated preemergence with a directed soil spray using test chemicals formulated in a non-phytotoxic solvent mixture which included a surfactant. At the same time these species were also treated with postemergence applications of test compounds formulated in the same manner. Plants ranged in height from 2 to 10 cm and were in the one- to two-leaf stage for the postemergence treatments. Treated plants and untreated controls were maintained in a greenhouse for approximately 10 days, after which time all treated plants were compared to untreated controls and visually evaluated for injury. Plant response ratings, summarized in Table A, are based on a 0 to 100 scale where 0 is no effect and 100 is complete control.
# [2] = test system: large crabgrass (Digitaria sanguinalis); experiment: Test A preemergence; conditions: 0 to 100 scale, 0 no effect, 100 complete control, approx. 10 days
# Description: as §1
# [3] = test system: morningglory (Ipomoea spp.); experiment: Test A preemergence; conditions: 0 to 100 scale, 0 no effect, 100 complete control, approx. 10 days
# Description: as §1
# [4] = test system: corn (Zea mays); experiment: Test A preemergence; conditions: 0 to 100 scale, 0 no effect, 100 complete control, approx. 10 days
# Description: as §1
# [5] = test system: velvetleaf (Abutilon theophrasti); experiment: Test A preemergence; conditions: 0 to 100 scale, 0 no effect, 100 complete control, approx. 10 days
# Description: as §1
# [6] = test system: barnyardgrass (Echinochloa crus-galli); experiment: Test A preemergence; conditions: 0 to 100 scale, 0 no effect, 100 complete control, approx. 10 days
# Description: as §1
# [7] = test system: pigweed (Amaranthus retroflexus); experiment: Test A preemergence; conditions: 0 to 100 scale, 0 no effect, 100 complete control, approx. 10 days
# Description: as §1
# [8] = test system: wheat (Triticum aestivum); experiment: Test A preemergence; conditions: 0 to 100 scale, 0 no effect, 100 complete control, approx. 10 days
# Description: as §1
# [9] = test system: giant foxtail (Setaria faberii); experiment: Test A postemergence; conditions: 0 to 100 scale, 0 no effect, 100 complete control, approx. 10 days
# Description: as §1
# [10] = test system: large crabgrass (Digitaria sanguinalis); experiment: Test A postemergence; conditions: 0 to 100 scale, 0 no effect, 100 complete control, approx. 10 days
# Description: as §1
# [11] = test system: morningglory (Ipomoea spp.); experiment: Test A postemergence; conditions: 0 to 100 scale, 0 no effect, 100 complete control, approx. 10 days
# Description: as §1
# [12] = test system: corn (Zea mays); experiment: Test A postemergence; conditions: 0 to 100 scale, 0 no effect, 100 complete control, approx. 10 days
# Description: as §1
# [13] = test system: velvetleaf (Abutilon theophrasti); experiment: Test A postemergence; conditions: 0 to 100 scale, 0 no effect, 100 complete control, approx. 10 days
# Description: as §1
# [14] = test system: barnyardgrass (Echinochloa crus-galli); experiment: Test A postemergence; conditions: 0 to 100 scale, 0 no effect, 100 complete control, approx. 10 days
# Description: as §1
# [15] = test system: pigweed (Amaranthus retroflexus); experiment: Test A postemergence; conditions: 0 to 100 scale, 0 no effect, 100 complete control, approx. 10 days
# Description: as §1
# [16] = test system: wheat (Triticum aestivum); experiment: Test A postemergence; conditions: 0 to 100 scale, 0 no effect, 100 complete control, approx. 10 days
# Description: as §1
# [17] = test system: umbrella sedge (Cyperus difformis); experiment: Test B flooded paddy test; conditions: Flood, scale 0 to 100
# Description: (§2) Plant species in the flooded paddy test consisted of rice (Oryza sativa), umbrella sedge (Cyperus difformis), ducksalad (Heteranthera limosa) and barnyardgrass (Echinochloa crus-galli) grown to the 2-leaf stage for testing. At time of treatment, test pots were flooded to 3 cm above the soil surface, treated by application of test compounds directly to the paddy water, and then maintained at that water depth for the duration of the test. Treated plants and controls were maintained in a greenhouse for 13 to 15 days, after which time all species were compared to controls and visually evaluated. Plant response ratings, summarized in Table B, are based on a scale of 0 to 100 where 0 is no effect and 100 is complete control. A dash (-) response means no test result.
# [18] = test system: rice (Oryza sativa); experiment: Test B flooded paddy test; conditions: Flood, scale 0 to 100
# Description: as §2
# [19] = test system: barnyardgrass (Echinochloa crus-galli); experiment: Test B flooded paddy test; conditions: Flood
# Description: as §2
# [20] = test system: ducksalad (Heteranthera limosa); experiment: Test B flooded paddy test; conditions: Flood, scale 0 to 100
# Description: as §2
# [21] = 250 g ai/ha, scale 0 to 100 (0 no effect, 100 complete control)
structure (smiles),measurement,setting,value
"COCCn1c(-c2cc(F)cc(F)c2)cnc(C(=O)C2=C(O)CCCC2=O)c1=O [Compound 5, 6-(3,5-difluorophenyl)-3-[(2-hydroxy-6-oxo-1-cyclohexen-1-yl)carbonyl]-1-(2-methoxyethyl)-2(1H)-pyrazinone]","Plant response rating, Foxtail, Giant",[1]; 31 g ai/ha,20
same,"Plant response rating, Foxtail, Giant",[1]; 125 g ai/ha,70
same,"Plant response rating, Foxtail, Giant",[1]; 500 g ai/ha,80
same,"Plant response rating, Crabgrass, Large",[2]; 31 g ai/ha,20
same,"Plant response rating, Crabgrass, Large",[2]; 125 g ai/ha,100
same,"Plant response rating, Crabgrass, Large",[2]; 500 g ai/ha,100
same,"Plant response rating, Morningglory",[3]; 31 g ai/ha,0
same,"Plant response rating, Morningglory",[3]; 125 g ai/ha,40
same,"Plant response rating, Morningglory",[3]; 500 g ai/ha,80
same,"Plant response rating, Corn",[4]; 31 g ai/ha,0
same,"Plant response rating, Corn",[4]; 125 g ai/ha,0
same,"Plant response rating, Corn",[4]; 500 g ai/ha,0
same,"Plant response rating, Velvetleaf",[5]; 31 g ai/ha,30
same,"Plant response rating, Velvetleaf",[5]; 125 g ai/ha,70
same,"Plant response rating, Velvetleaf",[5]; 500 g ai/ha,80
same,"Plant response rating, Barnyardgrass",[6]; 31 g ai/ha,0
same,"Plant response rating, Barnyardgrass",[6]; 125 g ai/ha,50
same,"Plant response rating, Barnyardgrass",[6]; 500 g ai/ha,80
same,"Plant response rating, Pigweed",[7]; 31 g ai/ha,40
same,"Plant response rating, Pigweed",[7]; 125 g ai/ha,90
same,"Plant response rating, Pigweed",[7]; 500 g ai/ha,90
same,"Plant response rating, Wheat",[8]; 31 g ai/ha,0
same,"Plant response rating, Wheat",[8]; 125 g ai/ha,0
same,"Plant response rating, Wheat",[8]; 500 g ai/ha,0
same,"Plant response rating, Foxtail, Giant",[9]; 31 g ai/ha,30
same,"Plant response rating, Foxtail, Giant",[9]; 125 g ai/ha,60
same,"Plant response rating, Foxtail, Giant",[9]; 500 g ai/ha,80
same,"Plant response rating, Crabgrass, Large",[10]; 31 g ai/ha,70
same,"Plant response rating, Crabgrass, Large",[10]; 125 g ai/ha,90
same,"Plant response rating, Crabgrass, Large",[10]; 500 g ai/ha,90
same,"Plant response rating, Morningglory",[11]; 31 g ai/ha,80
same,"Plant response rating, Morningglory",[11]; 125 g ai/ha,90
same,"Plant response rating, Morningglory",[11]; 500 g ai/ha,90
same,"Plant response rating, Corn",[12]; 31 g ai/ha,10
same,"Plant response rating, Corn",[12]; 125 g ai/ha,50
same,"Plant response rating, Corn",[12]; 500 g ai/ha,60
same,"Plant response rating, Velvetleaf",[13]; 31 g ai/ha,70
same,"Plant response rating, Velvetleaf",[13]; 125 g ai/ha,80
same,"Plant response rating, Velvetleaf",[13]; 500 g ai/ha,100
same,"Plant response rating, Barnyardgrass",[14]; 31 g ai/ha,50
same,"Plant response rating, Barnyardgrass",[14]; 125 g ai/ha,90
same,"Plant response rating, Barnyardgrass",[14]; 500 g ai/ha,90
same,"Plant response rating, Pigweed",[15]; 31 g ai/ha,80
same,"Plant response rating, Pigweed",[15]; 125 g ai/ha,100
same,"Plant response rating, Pigweed",[15]; 500 g ai/ha,100
same,"Plant response rating, Wheat",[16]; 31 g ai/ha,0
same,"Plant response rating, Wheat",[16]; 125 g ai/ha,30
same,"Plant response rating, Wheat",[16]; 500 g ai/ha,30
same,"Plant response rating, Sedge, Umbrella",[17]; 31 g ai/ha,50
same,"Plant response rating, Sedge, Umbrella",[17]; 62 g ai/ha,70
same,"Plant response rating, Sedge, Umbrella",[17]; 125 g ai/ha,90
same,"Plant response rating, Sedge, Umbrella",[17]; 250 g ai/ha,100
same,"Plant response rating, Rice",[18]; 31 g ai/ha,0
same,"Plant response rating, Rice",[18]; 62 g ai/ha,0
same,"Plant response rating, Rice",[18]; 125 g ai/ha,10
same,"Plant response rating, Rice",[18]; 250 g ai/ha,20
same,"Plant response rating, Barnyardgrass","[19]; 31 g ai/ha, scale 0 to 100",0
same,"Plant response rating, Barnyardgrass","[19]; 62 g ai/ha, scale 0 to 100",0
same,"Plant response rating, Barnyardgrass","[19]; 125 g ai/ha, scale 0 to 100",25
same,"Plant response rating, Barnyardgrass",[19]; [21],80
same,"Plant response rating, Ducksalad",[20]; 31 g ai/ha,0
same,"Plant response rating, Ducksalad",[20]; 62 g ai/ha,40
same,"Plant response rating, Ducksalad",[20]; 125 g ai/ha,60
same,"Plant response rating, Ducksalad",[20]; 250 g ai/ha,90
"O=C1CCCC(O)=C1C(=O)c1nc(Cl)c(-c2cccc(Cl)c2)n(C2CCCCC2)c1=O [Compound 3, 5-chloro-6-(3-chlorophenyl)-1-cyclohexyl-3-[(2-hydroxy-6-oxo-1-cyclohexen-1-yl)carbonyl]-2(1H)-pyrazinone]","Plant response rating, Foxtail, Giant",[1]; 62 g ai/ha,0
same,"Plant response rating, Foxtail, Giant",[1]; 250 g ai/ha,0
same,"Plant response rating, Crabgrass, Large",[2]; 62 g ai/ha,0
same,"Plant response rating, Crabgrass, Large",[2]; 250 g ai/ha,30
same,"Plant response rating, Morningglory",[3]; 62 g ai/ha,0
same,"Plant response rating, Morningglory",[3]; 250 g ai/ha,10
same,"Plant response rating, Corn",[4]; 62 g ai/ha,0
same,"Plant response rating, Corn",[4]; 250 g ai/ha,0
same,"Plant response rating, Velvetleaf",[5]; 62 g ai/ha,40
same,"Plant response rating, Velvetleaf",[5]; 250 g ai/ha,80
same,"Plant response rating, Barnyardgrass",[6]; 62 g ai/ha,0
same,"Plant response rating, Barnyardgrass",[6]; 250 g ai/ha,20
same,"Plant response rating, Pigweed",[7]; 62 g ai/ha,0
same,"Plant response rating, Pigweed",[7]; 250 g ai/ha,60
same,"Plant response rating, Wheat",[8]; 62 g ai/ha,0
same,"Plant response rating, Wheat",[8]; 250 g ai/ha,0
same,"Plant response rating, Foxtail, Giant",[9]; 62 g ai/ha,0
same,"Plant response rating, Foxtail, Giant",[9]; 250 g ai/ha,0
same,"Plant response rating, Crabgrass, Large",[10]; 62 g ai/ha,0
same,"Plant response rating, Crabgrass, Large",[10]; 250 g ai/ha,10
same,"Plant response rating, Morningglory",[11]; 62 g ai/ha,0
same,"Plant response rating, Morningglory",[11]; 250 g ai/ha,30
same,"Plant response rating, Corn",[12]; 62 g ai/ha,0
same,"Plant response rating, Corn",[12]; 250 g ai/ha,0
same,"Plant response rating, Velvetleaf",[13]; 62 g ai/ha,60
same,"Plant response rating, Velvetleaf",[13]; 250 g ai/ha,100
same,"Plant response rating, Barnyardgrass",[14]; 62 g ai/ha,0
same,"Plant response rating, Barnyardgrass",[14]; 250 g ai/ha,0
same,"Plant response rating, Pigweed",[15]; 62 g ai/ha,0
same,"Plant response rating, Pigweed",[15]; 250 g ai/ha,30
same,"Plant response rating, Wheat",[16]; 62 g ai/ha,0
same,"Plant response rating, Wheat",[16]; 250 g ai/ha,0
same,"Plant response rating, Sedge, Umbrella",[17]; 31 g ai/ha,0
same,"Plant response rating, Sedge, Umbrella",[17]; 62 g ai/ha,0
same,"Plant response rating, Sedge, Umbrella",[17]; 125 g ai/ha,30
same,"Plant response rating, Sedge, Umbrella",[17]; 250 g ai/ha,60
same,"Plant response rating, Rice",[18]; 31 g ai/ha,0
same,"Plant response rating, Rice",[18]; 62 g ai/ha,0
same,"Plant response rating, Rice",[18]; 125 g ai/ha,0
same,"Plant response rating, Rice",[18]; 250 g ai/ha,0
same,"Plant response rating, Barnyardgrass","[19]; 31 g ai/ha, scale 0 to 100",0
same,"Plant response rating, Barnyardgrass","[19]; 62 g ai/ha, scale 0 to 100",0
same,"Plant response rating, Barnyardgrass","[19]; 125 g ai/ha, scale 0 to 100",0
same,"Plant response rating, Barnyardgrass",[19]; [21],0
same,"Plant response rating, Ducksalad",[20]; 31 g ai/ha,0
same,"Plant response rating, Ducksalad",[20]; 62 g ai/ha,20
same,"Plant response rating, Ducksalad",[20]; 125 g ai/ha,80
same,"Plant response rating, Ducksalad",[20]; 250 g ai/ha,80
